Key:
[1] = target: T1, Glucose-dependent insulinotropic receptor (Homo sapiens, UniProt Q8TDV5); test: Agonist activity at human GPR119 expressed in HEK293 cells co-expressing CRE beta-lactamase assessed as cAMP accumulation by HTRF assay; assay type: functional, cell-based
T1 sequence (Q8TDV5 whole entry): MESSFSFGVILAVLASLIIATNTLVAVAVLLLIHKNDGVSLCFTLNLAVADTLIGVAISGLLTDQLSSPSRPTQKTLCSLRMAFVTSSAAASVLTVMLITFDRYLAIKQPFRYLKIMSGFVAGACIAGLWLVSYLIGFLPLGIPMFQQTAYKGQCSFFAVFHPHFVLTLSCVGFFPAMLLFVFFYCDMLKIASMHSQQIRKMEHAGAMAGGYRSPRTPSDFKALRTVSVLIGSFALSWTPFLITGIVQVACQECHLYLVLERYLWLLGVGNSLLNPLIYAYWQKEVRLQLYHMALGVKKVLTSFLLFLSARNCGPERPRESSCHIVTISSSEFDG

[2] = Intrinsic clearance in human liver microsomes; assay type: ADME, Microsome; settings: read-out: CLH
[3] = target: T2, Glucose-dependent insulinotropic receptor (Homo sapiens) (UniProt Q8TDV5); test: Intrinsic activity at human recombinant GPR119 expressed in HEK293 cells co-expressing CRE beta-lactamase assessed as cAMP accumulation at 10 uM by HTRF assay relative to control; assay type: functional, cell-based
T2 sequence (whole entry): T1 sequence (Q8TDV5 whole entry)

physchem = settings: buffer, pH 7.4

## CC(C)OC(=O)N1CCC(n2cc(CNc3ccc(S(C)(=O)=O)cc3F)cn2)CC1
[1]
  EC50: 181 nM
[2]
  microsomal CLint: 9.7 µL/min/mg
[3]
  Intrinsic activity: 41%
physchem
  logD: 2.3

## CC(C)OC(=O)N1CCC(N2Cc3cn(-c4ccc(S(C)(=O)=O)cc4F)nc3C2)CC1
[1]
  EC50: 864 nM
[2]
  microsomal CLint: 10.5 µL/min/mg
[3]
  Intrinsic activity: 105%

## CCc1cnc(N2CCC(N3Cc4cn(-c5ccc(S(C)(=O)=O)cc5F)nc4C3)CC2)nc1
[1]
  EC50: 83 nM
[2]
  microsomal CLint: 23 µL/min/mg
[3]
  Intrinsic activity: 118%
physchem
  logD: 2.9

## CCc1cnc(N2CCC([N+]3([O-])Cc4cn(-c5ccc(S(C)(=O)=O)cc5F)nc4C3)CC2)nc1 (stereo unspecified)
[1]
  EC50: 498 nM
[2]
  microsomal CLint: 9.8 µL/min/mg
[3]
  Intrinsic activity: 107%
physchem
  logD: 1.1

## CC(C)COC(=O)N1CCC(n2cc(CNc3ccc(S(C)(=O)=O)cc3F)cn2)CC1
[1]
  EC50: 240 nM
[3]
  Intrinsic activity: 24%
physchem
  logD: 2.8

## CS(=O)(=O)c1ccc(NCc2cnn(C3CCN(C(=O)OC4CCC4)CC3)c2)c(F)c1
[1]
  EC50: 462 nM
[3]
  Intrinsic activity: 42%
physchem
  logD: 2.5

## Cc1nc(S(C)(=O)=O)ccc1NCc1cnn(C2CCN(C(=O)OC(C)C)CC2)c1
[1]
  EC50: > 10000 nM
physchem
  logD: 1.6

## CCc1cnc(OC(=O)N2CCC(n3cc(CNc4ccc(S(C)(=O)=O)cc4F)cn3)CC2)nc1
[1]
  EC50: 47 nM
[2]
  microsomal CLint: 148 µL/min/mg
[3]
  Intrinsic activity: 43%
physchem
  logD: 3

## CC(C)OC(=O)N1CCC(n2cc3c(n2)CN(c2ccc(S(C)(=O)=O)cc2F)C3)CC1
[1]
  EC50: 260 nM
[2]
  microsomal CLint: 36.1 µL/min/mg
[3]
  Intrinsic activity: 48%
physchem
  logD: 3.2

From ChEMBL document CHEMBL2311308, “From partial to full agonism: identification of a novel 2,4,5,6-tetrahydropyrrolo[3,4-c]pyrazole as a full agonist of the human GPR119 receptor” (Bioorg Med Chem Lett, 2013)
